In general, EC50 refers to the concentration needed to bring the measured effect to its halfway point.

Where a name gives a salt, the structure may show the parent alone.

EC50 data for 30 compounds are collected here from US10947216B2, “Amide compounds and method for making and using” (Rigel Pharmaceuticals, Inc., priority 2016, dated 2021).

The test system of the first assay is IL-23p19. The experiment in a line: LPS Induced IL23p19 in THP-1 Cells (with IFNγ Primed) Assay. The assay is classed as cell-based, human. Conditions: Homo sapiens, THP-1, THP-1 cells, IFNγ (50 ng/mL) primed, 1 hour compound pre-incubation, LPS 1 ug/mL 18 hours, 10 pt; read-out: IL23-p19 ELISA, THP1-IFNy, LPS, 10 pt EC50. As to the method:
LPS Induced IL23p19 in THP-1 Cells (with IFNγ Primed) Assay
Method THP-1 Cells Stimulation:
On day 1, 50K/well THP-1 cells were seeded and primed with IFNγ (50 ng/mL) in 384-well plates for about 18 hours in RPMI media with 10% FBS. […] 50 μL/well 2× compound was added to 50 μL/well THP-1 cells (with IFNγ primed) in duplicate in 384 well tissue culture plates. […] Day 3, after stimulation for 18 hours at 37° C., 5% CO2, the assay plate was centrifuged and 70 μL/well supernatant was harvested. IL-23p19 protein in 70 μL/well of supernatant was measured by sandwich ELISA, and 25 μl/well Cell Titer Glo reagent was added to the remaining cells to measure compound toxicity.
Human IL-23p19 Sandwich ELISA:
Maxisorp immuno ELISA plates were pre-coated with 25 μL/well of anti-IL-23p19 capture antibody (2.5 ug/mL) in PBS overnight at room temperature. After washing with 1×PBST, the plates were blocked using 100 μL/well of 1% BSA in PBS for 2 hours at room temperature. The plates were washed three times with 1×PBST and 70 μL/well supernatant were added. The plates were incubated at room temperature for 2 hours with shaking and washed three times with 1×PBST. 25 μL/well of biotin labeled anti-IL-12(p40/p70) detection antibody (100 ng/mL) in PBS with 1% BSA was added and the plates were incubated at room temperature for 2 hours with shaking. After washing three times with 1×PBST, 25 μL/well of streptavidin-HRP (1:200) in PBS with 1% BSA was added and the plates were incubated at room temperature for 20 minutes with shaking. The plates were washed three times with 1×PBST and 25 μL/well of Super Signal ELISA Pico Chemiluminescent Substrate were added. The plates were read with a luminometer, and the chemiluminescence values were entered into Athena (Rigel) for curve fitting, EC50 calculation, and database storage.
A general note: ELISA stands for enzyme-linked immunosorbent assay.
As for `Cn1cc(NC(=O)c2cccc(-c3cncnc3)n2)c(-c2ccccn2)n1` [Compound I-5, N-(1-methyl-3-(pyridin-2-yl)-1H-pyrazol-4-yl)-6-(pyrimidin-5-yl)picolinamide], the EC50 was found to be 40.1 µM.

Turning to `Cc1n[nH]cc1Nc1ccnc(C(=O)Nc2cn(C)nc2-c2ccccn2)n1` [Compound I-129, 4-((3-methyl-1H-pyrazol-4-yl)amino)-N-(1-methyl-3-(pyridin-2-yl)-1H-pyrazol-4-yl)pyrimidine-2-carboxamide], the EC50 is 72.9 µM.

Consider `Cc1cncc(-c2cccc(C(=O)Nc3cn(CCN4CCOCC4)nc3-c3ccccn3)n2)c1` [Compound I-84, 5′-methyl-N-(1-(2-morpholinoethyl)-3-(pyridin-2-yl)-1H-pyrazol-4-yl)-[2,3′-bipyridine]-6-carboxamide], for which the EC50 came out at 0.444 µM.

For the compound `COCCOCCn1cc(NC(=O)c2cccc(-c3ccncc3)n2)c(-c2ccccn2)n1` [Compound I-140, N-(1-(2-(2-methoxyethoxy)ethyl)-3-(pyridin-2-yl)-1H-pyrazol-4-yl)-[2,4′-bipyridine]-6-carboxamide formate], the EC50 stood at 10.9 µM.

Turning to `COCCn1cc(NC(=O)c2cccc(-c3cncc(C)c3)n2)c(-c2ccccn2)n1` [Compound I-168, N-(1-(2-methoxyethyl)-3-(pyridin-2-yl)-1H-pyrazol-4-yl)-5′-methyl-[2,3′-bipyridine]-6-carboxamide], the EC50 turned out to be 0.541 µM.

Take `Cn1cc(NC(=O)c2cccc(-c3cncc(C(C)(C)O)c3)n2)c(-c2ccccn2)n1` [Compound I-14, 5′-(2-hydroxypropan-2-yl)-N-(1-methyl-3-(pyridin-2-yl)-1H-pyrazol-4-yl)-[2,3′-bipyridine]-6-carboxamide]: the EC50 is 1.52 µM.

On to `Cn1cc(NC(=O)c2cccc(-c3ccc4cc[nH]c4c3)n2)c(-c2ccccn2)n1` [Compound I-47, 6-(1H-indol-6-yl)-N-(1-methyl-3-(pyridin-2-yl)-1H-pyrazol-4-yl)picolinamide], for which the EC50 was found to be 3.6 µM.

In the case of `Cn1cc(NC(=O)c2cccc(-c3ccncc3)n2)c(-c2ccccn2)n1` [Compound I-160, N-(1-methyl-3-(pyridin-2-yl)-1H-pyrazol-4-yl)-[2,4′-bipyridine]-6-carboxamide 2,2,2-trifluoroacetate], the EC50 was 150 µM.

Consider `CCN(CC)CCn1cc(NC(=O)c2cccc(-c3ccncc3)n2)c(-c2ccccn2)n1` [Compound I-104, N-(1-(2-(diethylamino)ethyl)-3-(pyridin-2-yl)-1H-pyrazol-4-yl)-[2,4′-bipyridine]-6-carboxamide], for which the EC50 was 74.1 µM.

As to `Cn1cc(NC(=O)c2nccc(Nc3cn(C)nc3-c3ccccn3)n2)c(-c2ccccn2)n1` [Compound I-118, N-(1-methyl-3-(pyridin-2-yl)-1H-pyrazol-4-yl)-4-((1-methyl-3-(pyridin-2-yl)-1H-pyrazol-4-yl)amino)pyrimidine-2-carboxamide], the EC50 was determined as 130 µM.

Regarding `O=C(Nc1cn(C2CCOCC2)nc1-c1ccccn1)c1cccc(-c2cn[nH]c2)n1` [Compound I-165, 6-(1H-pyrazol-4-yl)-N-(3-(pyridin-2-yl)-1-(tetrahydro-2H-pyran-4-yl)-1H-pyrazol-4-yl)picolinamide], the EC50 was 1.53 µM.

Take `Cn1cc(NC(=O)c2cccc(-c3ccc[nH]3)n2)c(-c2ccccn2)n1` [Compound I-10, N-(1-methyl-3-(pyridin-2-yl)-1H-pyrazol-4-yl)-6-(1H-pyrrol-2-yl)picolinamide]: the concentration giving a half-maximal response (EC50) is 655 µM.

On to `COc1cccc(-c2cccc(C(=O)Nc3cn(C)nc3-c3ccccn3)n2)c1` [Compound I-51, 6-(3-methoxyphenyl)-N-(1-methyl-3-(pyridin-2-yl)-1H-pyrazol-4-yl)picolinamide], for which the EC50 worked out at 59.1 µM.

Consider `Cn1cc(NC(=O)c2cccc(C3=CCCN(C(=O)OC(C)(C)C)C3)n2)c(-c2ccccn2)n1` [Compound I-64, tert-butyl 6-((1-methyl-3-(pyridin-2-yl)-1H-pyrazol-4-yl)carbamoyl)-5′,6′-dihydro-[2,3′-bipyridine]-1′(2′H)-carboxylate], for which the EC50 came to 13.3 µM.

Consider `Cn1cc(NC(=O)c2cccc(-c3cncc(S(C)(=O)=O)c3)n2)c(-c2ccccn2)n1` [Compound I-39, N-(1-methyl-3-(pyridin-2-yl)-1H-pyrazol-4-yl)-5′-(methylsulfonyl)-[2,3′-bipyridine]-6-carboxamide], for which the EC50 was found to be 1.39 µM.

Take `Cn1cc(NC(=O)c2cccc(-c3cncc(N4CCOCC4)c3)n2)c(-c2ccccn2)n1` [Compound I-37, N-(1-methyl-3-(pyridin-2-yl)-1H-pyrazol-4-yl)-5′-morpholino-[2,3′-bipyridine]-6-carboxamide]: the EC50 is 0.587 µM.

For `COCCOCCn1cc(NC(=O)c2cccc(-c3ccncc3F)n2)c(-c2ccccn2)n1` [Compound I-144, 3′-fluoro-N-(1-(2-(2-methoxyethoxy)ethyl)-3-(pyridin-2-yl)-1H-pyrazol-4-yl)-[2,4′-bipyridine]-6-carboxamide formate], the EC50 turned out to be 11.5 µM.

With `Cn1cc(NC(=O)c2cccc(C3CCNCC3)n2)c(-c2ccccn2)n1` [Compound I-63, N-(1-methyl-3-(pyridin-2-yl)-1H-pyrazol-4-yl)-6-(piperidin-4-yl)picolinamide], the EC50 is 26.6 µM.

As for `Cn1cc(NC(=O)c2cccc(-c3cncc(C(F)(F)F)c3)n2)c(-c2ccccn2)n1` [Compound I-17, N-(1-methyl-3-(pyridin-2-yl)-1H-pyrazol-4-yl)-5′-(trifluoromethyl)-[2,3′-bipyridine]-6-carboxamide], the EC50 was 58.3 µM.

On to `Cn1cc(NC(=O)c2cncc(-c3cnn(CC4CC4)c3)c2)c(-c2ccccn2)n1` [Compound I-109, 5-(1-(cyclopropylmethyl)-1H-pyrazol-4-yl)-N-(1-methyl-3-(pyridin-2-yl)-1H-pyrazol-4-yl)nicotinamide], for which the half-maximal effective concentration (EC50) was found to be 10.8 µM.

Take `COCCOCCn1cc(NC(=O)c2cccc(-c3ccncc3C)n2)c(-c2ccccn2)n1` [Compound I-145, N-(1-(2-(2-methoxyethoxy)ethyl)-3-(pyridin-2-yl)-1H-pyrazol-4-yl)-3′-methyl-[2,4′-bipyridine]-6-carboxamide formate]: the EC50 is 56.9 µM.

Regarding `Cn1cc(NC(=O)c2cccc(-c3cccc(N)c3)n2)c(-c2ccccn2)n1` [Compound I-57, 6-(3-aminophenyl)-N-(1-methyl-3-(pyridin-2-yl)-1H-pyrazol-4-yl)picolinamide], the EC50 was 5.27 µM.

For the compound `Cc1cc(-c2cccc(C(=O)Nc3cn(C)nc3-c3ccccn3)n2)ccn1` [Compound I-15, 2′-methyl-N-(1-methyl-3-(pyridin-2-yl)-1H-pyrazol-4-yl)-[2,4′-bipyridine]-6-carboxamide], the EC50 is 63.6 µM.

Consider `Cn1cc(NC(=O)c2nccc(Nc3cc[nH]n3)n2)c(-c2ccccn2)n1` [Compound I-128, 4-((1H-pyrazol-3-yl)amino)-N-(1-methyl-3-(pyridin-2-yl)-1H-pyrazol-4-yl)pyrimidine-2-carboxamide], for which the EC50 turned out to be 24.2 µM.

Turning to `Cn1cc(NC(=O)c2cccc(-c3cncc(OCC(F)(F)F)c3)n2)c(-c2ccccn2)n1` [Compound I-24, N-(1-methyl-3-(pyridin-2-yl)-1H-pyrazol-4-yl)-5′-(2,2,2-trifluoroethoxy)-[2,3′-bipyridine]-6-carboxamide], the EC50 came to 101 µM.

For `COc1ccc(-c2nn(C)cc2NC(=O)c2cccc(-c3cncc(OC(C)C)c3)n2)nc1` [Compound I-70, 5′-isopropoxy-N-(3-(5-methoxypyridin-2-yl)-1-methyl-1H-pyrazol-4-yl)-[2,3′-bipyridine]-6-carboxamide], the EC50 amounted to 2.21 µM.

Turning to `O=C(Nc1c[nH]nc1-c1ccccn1)c1cccc(-c2ccncc2)n1` [Compound I-106, N-(3-(pyridin-2-yl)-1H-pyrazol-4-yl)-[2,4′-bipyridine]-6-carboxamide formate], the EC50 came out at 4.94 µM.

In the case of `Cn1cc(NC(=O)c2cccc(C3=CCN(C(=O)OC(C)(C)C)CC3)n2)c(-c2ccccn2)n1` [Compound I-61, tert-butyl 6-((1-methyl-3-(pyridin-2-yl)-1H-pyrazol-4-yl)carbamoyl)-3′,6′-dihydro-[2,4′-bipyridine]-1′(2′H)-carboxylate], the EC50 stood at 22.3 µM.

Consider `Cn1cc(NC(=O)c2cccc(-c3cncc(C#N)c3)n2)c(-c2ccccn2)n1` [Compound I-4, 5′-cyano-N-(1-methyl-3-(pyridin-2-yl)-1H-pyrazol-4-yl)-[2,3′-bipyridine]-6-carboxamide], for which the EC50 came to 1900 µM.

The same assay, now with this note: THP-1 cells, IFNγ (50 ng/mL) primed, 1 hour compound pre-incubation, LPS 1 ug/mL 18 hours, 10 pt; dihydrochloride; read-out: IL23-p19 ELISA, THP1-IFNy, LPS, 10 pt EC50.
Regarding `Cc1cncc(-c2cccc(C(=O)Nc3cn(C)nc3-c3ccc(N4CCOCC4)cn3)n2)c1` [Compound I-176, 5′-methyl-N-(1-methyl-3-(5-morpholinopyridin-2-yl)-1H-pyrazol-4-yl)-[2,3′-bipyridine]-6-carboxamide dihydrochloride], the EC50 stood at 27.9 µM.
